Assay results from patent publication US5627203A, “Tricyclic oxime ethers” (Adir et Compagnie, priority 1994, dated 1997).

What was measured:
5-HT1D receptors = assay: Displacement of 5-OH-tryptamine at 5-HT1D receptors; type: binding; settings: rat cortex, striatum and globus pallidus homogenates
Protocol: (§1) A-2: Study of the binding of the compounds of the invention to the serotonin reuptake site as well as to 5-HT1, 5-HT1A, 5-HT1B, 5-HT1D, 5-HT2, 5-HT2C, 5-HT4 serotoninergic receptors.
(§2) The binding of the compounds of the invention is measured in accordance with conventional methods.
for 5-HT1D receptors, by the displacement of 5-OH-tryptamine in rat cortex, striatum and globus pallidus homogenates, […]

5-HT1B receptors = molecular target: T1, 5-HT1B receptors (Rattus norvegicus, UniProt P28564); assay: Displacement of 5-hydroxytryptamine at 5-HT1B receptors; type: binding; settings: rat cortex, striatum, and globus pallidus homogenates
T1 construct: rat cortex, striatum, and globus pallidus homogenates; from tissue; host or cells: rat cortex, striatum and globus pallidus
Protocol: as §1, §2
for 5-HT1B receptors, by the displacement of 5-hydroxytryptamine in rat cortex, striatum, and globus pallidus homogenates, […]

serotonin reuptake site = molecular target: T2, serotonin reuptake site (Rattus norvegicus, UniProt P31652); assay: Displacement of 3H-paroxetine at the serotonin reuptake site; type: binding; settings: rat brain without cerebellum, read-out: IC50, serotonin reuptake sites
T2 construct: rat brain from which the cerebellum has been removed; from tissue; host or cells: rat brain without cerebellum
Protocol: as §1, §2
for the serotonin reuptake site, by the displacement of ^3 H-paroxetinein rat brain from which the cerebellum has been removed, […]

5-HT3 receptors = molecular target: T3, 5-HT3 receptors (Rattus norvegicus, UniProt P35563); assay: Displacement of 3H-zacopride at 5-HT3 receptors; type: binding; settings: 0.3-0.4 nM 3H-zacopride, rat area postrema homogenates, pH 7.4, 25° C., 30 minutes
T3 construct: rat area postrema homogenates; from tissue; host or cells: rat area postrema
T3 sequence (P35563 24-483): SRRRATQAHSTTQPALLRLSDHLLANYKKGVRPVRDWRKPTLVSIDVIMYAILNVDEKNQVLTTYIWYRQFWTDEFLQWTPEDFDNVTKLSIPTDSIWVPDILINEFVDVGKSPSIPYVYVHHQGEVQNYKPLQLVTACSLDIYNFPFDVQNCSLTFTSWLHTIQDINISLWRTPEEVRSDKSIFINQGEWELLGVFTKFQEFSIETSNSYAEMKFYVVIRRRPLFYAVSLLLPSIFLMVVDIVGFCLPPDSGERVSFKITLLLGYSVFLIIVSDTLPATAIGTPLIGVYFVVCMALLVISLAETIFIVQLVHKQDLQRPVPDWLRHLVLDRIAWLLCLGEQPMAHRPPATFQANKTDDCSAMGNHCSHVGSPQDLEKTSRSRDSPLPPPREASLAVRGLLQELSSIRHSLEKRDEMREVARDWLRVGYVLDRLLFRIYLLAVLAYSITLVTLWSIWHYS
Protocol: A-1: Study of the binding of the compounds of the invention to 5-HT3 serotoninergic receptors
The binding of the compounds of the invention to 5-HT3 receptors was determined for each compound by measuring the displacement of ^3 H-zacopride (specific ligand for 5-HT3 receptors) in rat area postrema homogenates.
Aliquot amounts (50-100 μl) of a membrane suspension (2.5-5.0 mg of protein/cm^3) are incubated for 30 minutes at 25° C. in a Tris-HCl buffer, 25 mM, pH 7,4, in the presence of 0.3-0.4 nM 3^H -zacopride (83 ci/mmol) (total volume: 0.5 cm^3). The incubation is terminated by filtering the samples through Whatman GF/B filters which are then washed and dried. The radioactivity retained on the filters is finally calculated by spectrometry in liquid medium (Aquasol). The non-specific binding is evaluated under the same conditions using samples containing in addition 1 μM of ondansetron (5-HT3 antagonist). The displacement curves obtained by adding increasing concentrations of a test compound to the incubation medium are analysed to determine the affinity of the test compounds for 5-HT3 receptors.

5-HT2 receptors = molecular target: T4, 5-HT2 receptors (Rattus norvegicus, UniProt P14842); assay: Displacement of aminoiodoketaneserine at 5-HT2 receptors; type: binding; settings: rat frontal cortex homogenates
T4 construct: rat frontal cortex homogenates; from tissue; host or cells: rat frontal cortex
Protocol: as §1, §2
for 5-HT2 receptors, by the displacement of aminoiodoketaneserine in rat frontal cortex homogenates, […]

5-HT1A receptors = molecular target: T5, 5-HT1A receptors (Rattus norvegicus, UniProt P19327); assay: Displacement of 8-OH-DPAT at 5-HT1A receptors; type: binding; settings: rat hippocampus homogenates
T5 construct: rat hippocampus homogenates; from tissue; host or cells: rat hippocampus
T5 sequence (P19327 1-422): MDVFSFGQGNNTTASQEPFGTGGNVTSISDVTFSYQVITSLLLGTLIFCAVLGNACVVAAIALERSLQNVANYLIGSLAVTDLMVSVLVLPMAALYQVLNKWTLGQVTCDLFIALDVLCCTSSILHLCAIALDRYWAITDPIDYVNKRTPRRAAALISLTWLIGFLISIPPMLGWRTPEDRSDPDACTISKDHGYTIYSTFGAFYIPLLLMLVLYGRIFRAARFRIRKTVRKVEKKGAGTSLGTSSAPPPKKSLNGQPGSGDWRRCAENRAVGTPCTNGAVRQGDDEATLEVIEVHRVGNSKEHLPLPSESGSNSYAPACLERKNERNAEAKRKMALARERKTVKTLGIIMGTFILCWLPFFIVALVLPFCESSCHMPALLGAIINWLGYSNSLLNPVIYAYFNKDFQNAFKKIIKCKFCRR
Protocol: as §1, §2
for 5-HT1A receptors, by the displacement of 8-OH-DPAT in rat hippocampus homogenates, […]

5-HT1 receptors = assay: Displacement of 5-OH tryptamine at 5-HT1 receptors; type: binding; settings: pig frontal cortex and striatum
Protocol: as §1, §2
for 5-HT1 receptors, by the displacement of 5-OH tryptamine in pig frontal cortex and striatum, […]

5-HT2C receptors = molecular target: T6, 5-HT2C receptors (Rattus norvegicus, UniProt P08909); assay: Displacement of N-methylmesulergine at 5-HT2C receptors; type: binding; settings: rat frontal cortex and hippocampus homogenates
T6 construct: rat frontal cortex and hippocampus homogenates; from tissue; host or cells: rat frontal cortex and hippocampus
T6 sequence (P08909 33-460): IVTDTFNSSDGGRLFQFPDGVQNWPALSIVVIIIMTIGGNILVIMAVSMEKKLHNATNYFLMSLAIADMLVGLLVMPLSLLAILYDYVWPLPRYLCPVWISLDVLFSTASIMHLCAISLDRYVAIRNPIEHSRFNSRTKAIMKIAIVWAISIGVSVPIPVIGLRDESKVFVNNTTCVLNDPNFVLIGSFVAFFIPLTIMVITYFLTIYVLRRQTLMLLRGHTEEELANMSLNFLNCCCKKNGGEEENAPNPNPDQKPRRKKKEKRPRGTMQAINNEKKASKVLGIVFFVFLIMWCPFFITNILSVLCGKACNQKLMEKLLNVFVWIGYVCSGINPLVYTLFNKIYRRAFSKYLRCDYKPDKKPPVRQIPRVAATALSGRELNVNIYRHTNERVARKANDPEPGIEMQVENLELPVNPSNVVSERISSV
Protocol: as §1, §2
for 5-HT2C receptors, by the displacement of N-methylmesulergine in rat frontal cortex and hippocampus homogenates, […]

mouse = assay: Anxiolytic activity: illuminated/darkened cages test on the mouse; type: in vivo; settings: 15 mg/kg, i.p. route, 5 minutes
From the text: The anxiolytic effects of the compounds of the invention were studied in accordance with the illuminated/darkened cages test on the mouse (Crawley et al. (1981), Pharmacol. Biochem. Behav., 15, pp 695-699).
The test uses two cages of equal size (20×20×14 cm) made of PVC. One is strongly illuminated by a 100 W bulb ("cold" light) and the other is darkened. The two cages are separated from one another by a small opaque tunnel (5×7 cm). The mice are introduced individually into the tunnel and, once they have entered the darkened cage for the first time, a recording is made over a period of 5 minutes, by means of pads connected to a computer, of the time spent by the animals in the illuminated cage as well as the number of transfers between the darkened cage and the illuminated cage. Each experimental group comprises a minimum of 15 animals.

T4 sequence (P14842 whole entry): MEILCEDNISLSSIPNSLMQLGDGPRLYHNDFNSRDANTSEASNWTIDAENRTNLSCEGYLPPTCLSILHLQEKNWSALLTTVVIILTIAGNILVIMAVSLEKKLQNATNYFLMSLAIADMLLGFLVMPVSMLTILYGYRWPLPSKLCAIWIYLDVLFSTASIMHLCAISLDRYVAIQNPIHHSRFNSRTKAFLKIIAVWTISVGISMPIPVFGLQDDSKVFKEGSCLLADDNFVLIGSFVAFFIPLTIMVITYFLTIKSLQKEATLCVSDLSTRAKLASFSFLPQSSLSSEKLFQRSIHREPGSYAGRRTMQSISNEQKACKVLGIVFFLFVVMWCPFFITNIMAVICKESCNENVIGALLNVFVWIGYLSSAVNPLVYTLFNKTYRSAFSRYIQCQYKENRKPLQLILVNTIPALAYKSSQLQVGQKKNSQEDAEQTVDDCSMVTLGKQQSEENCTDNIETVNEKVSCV
T1 sequence (P28564 whole entry): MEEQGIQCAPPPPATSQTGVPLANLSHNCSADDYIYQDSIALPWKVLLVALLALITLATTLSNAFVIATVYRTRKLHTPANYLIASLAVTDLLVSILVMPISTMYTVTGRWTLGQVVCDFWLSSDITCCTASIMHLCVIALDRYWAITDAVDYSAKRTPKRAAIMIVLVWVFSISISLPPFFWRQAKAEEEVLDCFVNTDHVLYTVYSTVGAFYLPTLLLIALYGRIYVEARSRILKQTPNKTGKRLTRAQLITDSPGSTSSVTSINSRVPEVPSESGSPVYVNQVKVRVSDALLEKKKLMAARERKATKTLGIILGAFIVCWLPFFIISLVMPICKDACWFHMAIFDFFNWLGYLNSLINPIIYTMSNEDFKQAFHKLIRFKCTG
T2 sequence (P31652 whole entry): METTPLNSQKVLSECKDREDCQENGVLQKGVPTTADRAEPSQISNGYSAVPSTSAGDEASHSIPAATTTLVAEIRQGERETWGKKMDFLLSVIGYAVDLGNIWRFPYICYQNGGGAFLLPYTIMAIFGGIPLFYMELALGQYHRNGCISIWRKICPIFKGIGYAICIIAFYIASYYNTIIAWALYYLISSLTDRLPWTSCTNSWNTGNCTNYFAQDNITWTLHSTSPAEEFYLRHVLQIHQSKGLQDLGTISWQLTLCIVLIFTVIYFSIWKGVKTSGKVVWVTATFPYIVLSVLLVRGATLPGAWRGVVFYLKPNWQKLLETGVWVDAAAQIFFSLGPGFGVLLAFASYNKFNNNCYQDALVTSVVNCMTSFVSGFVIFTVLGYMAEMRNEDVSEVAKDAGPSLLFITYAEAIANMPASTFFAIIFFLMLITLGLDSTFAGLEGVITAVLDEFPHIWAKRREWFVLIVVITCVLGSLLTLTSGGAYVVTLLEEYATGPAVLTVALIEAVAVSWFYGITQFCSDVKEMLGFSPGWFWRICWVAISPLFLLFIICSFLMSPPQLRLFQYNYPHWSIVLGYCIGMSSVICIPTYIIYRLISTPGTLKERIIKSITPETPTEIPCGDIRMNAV

Cc1csc2c1-n1cccc1/C2=N/OCC(C)N(C)C (stereo not shown) [Example 22] was tested, and the IC50 (5-HT1D receptors) was 6.4 µM, the IC50 (5-HT1B receptors) was 11 µM and the IC50 (serotonin reuptake site) was 0.11 µM. For the same molecule, the IC50 (5-HT3 receptors) was 0.001 µM, the IC50 (5-HT2 receptors) was 11 µM and the IC50 (5-HT1A receptors) was 9 µM. For the same molecule, the IC50 (5-HT1 receptors) was 6.9 µM, the IC50 (5-HT2C receptors) was 1.6 µM and the “Number of transfers, percentage compared with the control group” value (mouse) was “+76%”. The “Time spent in the illuminated cage, percentage compared with the control group” value (mouse; *p < 0.5) was “+92%”.
